Activity calls are given as the source filed them. No cut-off for these calls is given here.
Key:
[1] = test system: SK-MEL-2; assay: Antiproliferative activity against human SK-MEL-2 cells assessed as inhibition of colony formation at 1.5 uM measured after 10 days by crystal violet staining based assay; type: functional, cell-based; settings: time 10.0 day
[2] = test system: SK-MEL-2; assay: Synergistic cytotoxicity against human SK-MEL-2 cells expressing NRAS mutant assessed as combination index measured for 48 hrs in presence of Rapamycin by MTT assay; type: functional
[3] = test system: SK-MEL-2; assay: Synergistic cytotoxicity against human SK-MEL-2 cells expressing NRAS mutant assessed as combination index measured for 48 hrs in presence of MK2206 by MTT assay; type: functional
[4] = test system: SK-MEL-2; assay: Antitumor activity against human SK-MEL-2 cells xenografted in BALB/c nude mouse assessed as tumor growth inhibition at 5 mg/kg/day, ip by electronic caliper method; type: functional, organism-based; settings: time 30.0 day, TDE = time-dependent effect
[5] = test system: SK-MEL-2; assay: Antitumor activity against human SK-MEL-2 cells xenografted in BALB/c nude mouse assessed as reduction in tumor weight at 5 mg/kg/day, ip administered for 30 days by electronic caliper method; type: functional, organism-based; settings: time 30.0 day
[6] = test system: SK-MEL-2; assay: Antitumor activity against human SK-MEL-2 cells xenografted in BALB/c nude mouse assessed as T/C ratio at 5 mg/kg/day, ip administered for 30 days relative to control; type: functional; settings: time 30 day
[7] = test system: SK-MEL-2; assay: Antitumor activity against human SK-MEL-2 cells xenografted in BALB/c nude mouse assessed as tumor growth inhibition at 5 mg/kg/day, ip administered for 30 days relative to control; type: functional; settings: SK-MEL-2, 720 h, time 30 day, read-out: TGI

Cn1cnc2c(F)c(Nc3ccc(Br)cc3F)c(C(=O)NOCCO)cc21 [BINIMETINIB]
inhibition [1]: Active
CI [2]: 0.5
CI [3]: 0.5
Activity [4]: Tde
Activity [5]: Active
T/C [6]: 24.8%
inhibition in vivo at 5 mg/kg/day [7]: 70.4%

Reference: ChEMBL document CHEMBL5380835, “Discovery of Clinically Used Octenidine as NRAS Repressor That Effectively Inhibits NRAS-Mutant Melanoma” (J Med Chem, 2023)
